In the supplement of paper PMC10307832:

Assays:
Experiment in all cases: relative viability (nuclei count vs DMSO), 5 days (fraction); higher = more cells survive
Obatoclax + Olaparib = compound: COC1=CC(c2cc3ccccc3[nH]2)=N/C1=C\c1[nH]c(C)cc1C [Obatoclax] + O=C(c1cc(Cc2n[nH]c(=O)c3ccccc23)ccc1F)N1CCN(C(=O)C2CC2)CC1 [Olaparib] (partner 8 µM)
Summary of the method: (§1)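 Each reported value is a median over duplicate plates. It expresses relative viability: treated-well nuclei count divided by vehicle-well nuclei count. Lung cancer cell lines in 1536-well plates were dosed by pin tool a day after seeding, alone with one drug or with a fixed anchor-drug dose plus five library-drug doses (not always all listed) in √10 steps, and nuclei were counted after 5 days.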

Obatoclax + Phenformin = compound: COC1=CC(c2cc3ccccc3[nH]2)=N/C1=C\c1[nH]c(C)cc1C [Obatoclax] + N=C(N)NC(=N)NCCc1ccccc1 [Phenformin] (partner 250 µM)
Summary of the method: as §1

Obatoclax + Navitoclax = compound: COC1=CC(c2cc3ccccc3[nH]2)=N/C1=C\c1[nH]c(C)cc1C [Obatoclax] + CC1(C)CCC(c2ccc(Cl)cc2)=C(CN2CCN(c3ccc(C(=O)NS(=O)(=O)c4ccc(N[C@H](CCN5CCOCC5)CSc5ccccc5)c(S(=O)(=O)C(F)(F)F)c4)cc3)CC2)C1 [Navitoclax] (partner 0.5 µM)
Summary of the method: as §1

[1] = compound: CC1=CC(=NN1)NC2=CC(=NC(=N2)/C=C/C3=CC=CC=C3)N4CCN(CC4)C + Cc1nc(Nc2ncc(C(=O)Nc3c(C)cccc3Cl)s2)cc(N2CCN(CCO)CC2)n1 [Dasatinib] (partner 0.075 µM)
Summary of the method: as §1

Cell Line	relative viability (Obatoclax + Olaparib; first compound 0.01 µM)	relative viability (Obatoclax + Olaparib; first compound 0.03162 µM)	relative viability (Obatoclax + Olaparib; first compound 0.1 µM)	relative viability (Obatoclax + Olaparib; first compound 0.3162 µM)	relative viability (Obatoclax + Olaparib; first compound 1 µM)	relative viability (Obatoclax + Phenformin; first compound 0.01 µM)	relative viability (Obatoclax + Phenformin; first compound 0.03162 µM)	relative viability (Obatoclax + Phenformin; first compound 0.1 µM)	relative viability (Obatoclax + Phenformin; first compound 0.3162 µM)	relative viability (Obatoclax + Phenformin; first compound 1 µM)	relative viability (Obatoclax + Navitoclax; first compound 0.01 µM)	relative viability (Obatoclax + Navitoclax; first compound 0.03162 µM)	relative viability (Obatoclax + Navitoclax; first compound 0.1 µM)	relative viability (Obatoclax + Navitoclax; first compound 0.3162 µM)	relative viability (Obatoclax + Navitoclax; first compound 1 µM)	relative viability ([1]; first compound 0.08 µM)	relative viability ([1]; first compound 0.253 µM)	relative viability ([1]; first compound 0.8 µM)	relative viability ([1]; first compound 2.53 µM)	relative viability ([1]; first compound 8 µM)
HCC-44	0.965	0.988	0.966	0.969	0.94	0.268	0.185	0.0802	0.14	0.111	0.923	0.803	0.989	0.911	1.05	–	–	–	–	–
HCC-78	0.836	0.952	1.26	0.668	0.855	0.8	0.634	0.868	0.642	0.67	0.81	0.807	–	0.575	0.668	0.444	0.436	0.469	0.234	0.221
HCC-366	0.322	0.366	0.316	0.334	0.272	0.581	0.565	0.657	0.628	0.478	0.969	1.03	1.05	0.988	1.01	0.708	0.645	0.544	0.0369	0.0193
HCC-827	0.594	0.542	0.628	0.581	0.221	0.424	0.409	0.46	0.373	0.435	0.997	0.99	1.06	0.988	1	0.318	0.255	0.282	0.228	0.373
HOP-62	0.292	0.352	–	0.434	0.405	0.693	0.699	0.604	0.662	0.404	1.06	1.01	1.01	0.989	0.932	0.605	0.72	0.772	0.355	0.197
IA-LM	0.832	0.881	0.775	0.782	0.114	–	–	–	–	–	0.852	0.855	0.666	0.065	0.0608	–	–	–	–	–
LC-2-ad	0.693	0.676	0.732	0.723	0.648	0.637	0.49	0.541	0.585	0.499	0.359	0.446	0.311	0.26	0.145	0.611	0.367	0.257	0.182	0.134
LCLC-97TM1	0.273	0.38	0.389	0.293	0.348	0.417	0.408	0.458	0.485	0.421	0.38	0.439	0.387	0.346	0.474	0.867	0.724	0.885	0.622	0.552
LCLC-103H	0.704	0.745	0.672	0.745	0.706	0.317	0.28	0.327	0.321	0.34	–	–	–	–	–	0.481	0.483	0.492	0.459	0.237
LK-2	0.806	0.81	0.768	0.695	0.762	0.547	0.485	0.483	0.464	0.346	0.885	0.822	0.957	0.864	1.02	0.242	0.246	0.226	0.139	0.0998
LOU-NH91	0.921	0.919	0.834	0.857	0.398	0.716	0.657	0.499	0.403	0.432	0.761	0.739	0.556	0.549	0.364	0.576	0.614	0.61	0.448	0.302
NCI-H358	0.543	0.61	0.582	0.384	0.141	0.309	0.365	0.432	0.339	0.217	–	–	–	–	–	0.171	0.23	0.173	0.08	0.0626
NCI-H522	0.783	0.681	0.694	0.621	0.56	0.614	0.62	0.633	0.688	0.603	–	–	–	–	–	0.94	0.795	0.662	0.482	0.388
NCI-H661	0.741	0.729	0.729	0.676	0.516	0.284	0.256	0.262	0.263	0.234	–	–	–	–	–	0.824	0.808	0.853	0.243	0.237
NCI-H1299	0.946	0.92	0.976	0.969	0.331	–	–	–	–	–	1.04	1.07	1.04	1.07	0.997	–	–	–	–	–
NCI-H1563	–	–	–	–	–	0.621	0.696	0.629	0.683	0.586	–	–	–	–	–	0.462	0.463	0.497	0.432	0.288
NCI-H1623	–	–	–	–	–	0.626	0.578	0.515	0.598	0.568	–	–	–	–	–	0.469	0.559	0.614	0.494	0.543
NCI-H1648	1.07	0.793	0.91	0.624	0.576	–	–	–	–	–	–	–	–	–	–	–	–	–	–	–
NCI-H1703	0.18	0.403	0.393	0.524	0.246	–	–	–	–	–	1.27	1.34	0.955	0.385	0.292	–	–	–	–	–
NCI-H2342	0.419	0.409	0.448	0.515	0.473	0.744	0.573	0.737	0.48	0.584	–	–	–	–	–	0.314	0.298	0.322	0.249	0.218
SW 900	0.893	0.803	0.924	0.703	0.606	0.556	0.584	0.726	0.493	0.325	–	–	–	–	–	0.644	0.585	0.413	0.418	0.0713
